Source: PMC7531004, “Discovery of gramicidin A analogues with altered activities by multidimensional screening of a one-bead-one-compound library” (Nature Communications, 2020)
Where a SMILES comes first, the peptide text is derived from it. [ ]: non-standard residue; d: D form. The star is where a group is joined. NHCH2CH2OH = OCCN*; For = O=C*

Columns and labels:
[1] = H+/Na+ transport assay of bead-derived peptides (one-point); format: biochemical; set-up: key: relative activity; mean of two control wells = 1.00; conditions: bead-derived peptide solution, EYPC/EYPG LUVs;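 further: relative to parent gramicidin A activity set to 1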
In short: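 Pyranine (1.0 mM)-loaded LUVs containing egg yolk phosphatidylglycerol were prepared by film hydration, sonication and extrusion, then mixed with diluted bead-derived peptide in 96-well format and vortexed 30 min at room temperature. Fluorescence was normalized between untreated LUVs (0%) and Triton X-100 lysis (100%).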

[2] = cell viability/%
In short: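 P388 cells at 1 × 10^4 cells/mL (final) were exposed to library peptides (stocks diluted 250-fold in RPMI1640/10% FBS) for 92 h at 37 °C, 5% CO2. Viable cells were counted by WST-1/1-methoxy PMS (4 h), absorbance 415 nm, and expressed as cell viability (%).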

[3] = test system: Streptococcus pyogenes SSI-9; experiment: Antibacterial activity assay of bead-derived peptides (three concentrations); format: cell-based; set-up: key: +++: inhibition by the 640-fold diluted peptide solution; ++: inhibition by the 160-fold diluted solution; +: inhibition by the 40-fold diluted solution; -: no inhibition; conditions: S. pyogenes, bead-derived peptide solution, three concentrations
In short: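 Library peptide stock applied undiluted, 4-fold and 16-fold diluted in DMSO to S. pyogenes SSI-9 (2 × 10^5 CFU) in cation-adjusted Mueller Hinton broth with 5% laked horse blood. After 18 h at 37 °C, growth judged by visible cell precipitation.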

For `CC(C)C[C@@H](NC(=O)[C@H](C)NC(=O)[C@H](NC(=O)[C@H](C)NC(=O)CNC(=O)[C@@H](NC=O)C(C)C)[C@H](C)O)C(=O)N[C@H](C(=O)N[C@H](CC(C)C)C(=O)N[C@@H](Cc1c[nH]c2ccccc12)C(=O)N[C@@H](C(=O)N[C@@H](Cc1c[nH]c2ccccc12)C(=O)N[C@H](CC(C)C)C(=O)N[C@@H](Cc1c[nH]c2ccccc12)C(=O)N[C@H](CC(C)C)C(=O)N[C@@H](Cc1c[nH]c2ccccc12)C(=O)NCCO)[C@H](C)O)C(C)C` [compound 131] (For-VGA[dT]A[dL]V[dL]W[dT]W[dL]W[dL]W-NHCH2CH2OH), the “H+/Na+ transport activity normalized against the value of 1 (1.00)” value (from here on “H+/Na+ transport activity normalized”) [1] was 1.10, the viability [2] was 100% and the antibacterial activity [3] was “-”.
For `CC(C)C[C@@H](NC(=O)[C@H](C)NC(=O)CNC(=O)[C@@H](NC=O)C(C)C)C(=O)N[C@@H](C)C(=O)N[C@@H](C(=O)N[C@H](C(=O)N[C@H](CC(C)C)C(=O)N[C@@H](Cc1c[nH]c2ccccc12)C(=O)N[C@@H](C(=O)N[C@@H](Cc1c[nH]c2ccccc12)C(=O)N[C@@H](C(=O)N[C@@H](Cc1c[nH]c2ccccc12)C(=O)N[C@H](CC(C)C)C(=O)N[C@@H](Cc1c[nH]c2ccccc12)C(=O)NCCO)C(C)C)C(C)C)C(C)C)C(C)C` [compound 8051] (For-VGA[dL]A[dV]V[dL]W[dV]W[dV]W[dL]W-NHCH2CH2OH), the “H+/Na+ transport activity normalized” value [1] was 1.13, the viability [2] was 16.8% and the antibacterial activity [3] was “+”.
With `CC(C)C[C@@H](NC(=O)[C@H](C)NC(=O)CNC(=O)[C@@H](NC=O)C(C)C)C(=O)N[C@@H](C)C(=O)N[C@@H](C(=O)N[C@H](C(=O)N[C@@H](C(=O)N[C@@H](Cc1c[nH]c2ccccc12)C(=O)N[C@@H](C(=O)N[C@@H](Cc1c[nH]c2ccccc12)C(=O)N[C@@H](C(=O)N[C@@H](Cc1c[nH]c2ccccc12)C(=O)N[C@H](CC(C)C)C(=O)N[C@@H](Cc1c[nH]c2ccccc12)C(=O)NCCO)C(C)C)C(C)C)C(C)C)C(C)C)C(C)C` [compound 5056] (For-VGA[dL]A[dV]V[dV]W[dV]W[dV]W[dL]W-NHCH2CH2OH) the “H+/Na+ transport activity normalized” value [1] was 1.01, the viability [2] was 100% and the antibacterial activity [3] was “+”.
For `CC(C)C[C@@H](NC(=O)[C@H](Cc1c[nH]c2ccccc12)NC(=O)[C@@H](CC(C)C)NC(=O)[C@H](Cc1c[nH]c2ccccc12)NC(=O)[C@H](NC(=O)[C@H](Cc1c[nH]c2ccccc12)NC(=O)[C@@H](CC(C)C)NC(=O)[C@@H](NC(=O)[C@H](NC(=O)[C@H](C)NC(=O)[C@H](NC(=O)[C@H](C)NC(=O)CNC(=O)[C@@H](NC=O)C(C)C)C(C)C)[C@H](C)O)C(C)C)C(C)C)C(=O)N[C@@H](Cc1c[nH]c2ccccc12)C(=O)NCCO` [compound 2085] (For-VGA[dV]A[dT]V[dL]W[dV]W[dL]W[dL]W-NHCH2CH2OH), the “H+/Na+ transport activity normalized” value [1] was 1.20, the viability [2] was 100% and the antibacterial activity [3] was “-”.
In the case of `CC(C)C[C@@H](NC(=O)[C@H](C)NC(=O)CNC(=O)[C@@H](NC=O)C(C)C)C(=O)N[C@@H](C)C(=O)N[C@H](CC(C)C)C(=O)N[C@H](C(=O)N[C@@H](C(=O)N[C@@H](Cc1c[nH]c2ccccc12)C(=O)N[C@H](CC(C)C)C(=O)N[C@@H](Cc1c[nH]c2ccccc12)C(=O)N[C@@H](C(=O)N[C@@H](Cc1c[nH]c2ccccc12)C(=O)N[C@@H](C(=O)N[C@@H](Cc1c[nH]c2ccccc12)C(=O)NCCO)C(C)C)C(C)C)[C@H](C)O)C(C)C` [compound 8130] (For-VGA[dL]A[dL]V[dT]W[dL]W[dV]W[dV]W-NHCH2CH2OH), the “H+/Na+ transport activity normalized” value [1] is reported as 1.17, the viability [2] is reported as 100% and the antibacterial activity [3] is reported as “-”.
